Laboratory results published in PubChem BioAssay AID652140 (Sanford-Burnham Center for Chemical Genomics, 2013).
Active and inactive are the calls of the source.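 The calls were made as follows: active = compounds whose IC50 against the worm SKN-1 reporter ratio signal is 5 µM or lower; inactive = the rest.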

These compounds were tested on C. elegans VP596 gst-4::GFP/RFP ratio, acrylamide, 24 h (assay: analog inhibition of acrylamide-induced gst-4::GFP reporter, SAR follow-up, SKN-1 inhibitor project, whole organism, GFP/RFP fluorescence ratio, strain VP596 (AID 652140)).

Row | IC50 | SMILES
1 | 17.4 µM (inactive) | CCOc1cc(CNCc2ccccc2)cc(Cl)c1OCc1ccc(F)cc1
2 | 25.8 µM (inactive) | CCOc1cc(CNC2CCCC2)cc(Cl)c1OCc1ccc(C)cc1
3 | 2.03 µM | Fc1ccc(-c2csc(-c3ccncc3)n2)cc1
4 | 1.96 µM | CCOc1cc(CNC2CC2)cc(Cl)c1OCc1ccc(F)cc1
5 | > 64 µM (inactive) | COc1ccc(-c2csc(-c3cccnc3)n2)cc1
6 | 0.826 µM | COc1cc(CNC2CCCC2)cc(Cl)c1OCc1ccc(F)cc1
7 | 4.18 µM | Fc1ccc(COc2ccc(CNC3CCCC3)cc2Cl)cc1
8 | 1.51 µM | Clc1ccc(-c2csc(-c3cccnc3)n2)cc1
9 | > 64 µM (inactive) | CCOc1cc(CNC2CCCC2)cc(Cl)c1OC
10 | 17.7 µM (inactive) | Cc1ccc(-c2csc(-c3ccncc3)n2)cc1
11 | > 64 µM (inactive) | CCOc1cc(C(=O)NC2CCCC2)cc(Cl)c1OCc1ccc(F)cc1
12 | 12 µM (inactive) | CCOc1cc(CNC2CCCC2)cc(Cl)c1OCc1ccccc1Cl
13 | 0.244 µM | CCOc1cc(CNC2CCCC2)cc(Cl)c1OCc1ccc(Cl)cc1
14 | 16.7 µM (inactive) | CCOc1cc(CNC(C)C)cc(Cl)c1OCc1ccc(F)cc1
15 | 19.6 µM (inactive) | c1ccc(-c2csc(-c3cccnc3)n2)cc1
16 | 0.767 µM | CCOc1cc(CNC2CCCC2)cc(Cl)c1OCc1ccccc1F
17 | > 64 µM (inactive) | CCOc1cc(CNc2ccccc2)cc(Cl)c1OCc1ccc(F)cc1
18 | 2.58 µM | c1ccc(-c2csc(-c3ccncc3)n2)cc1
19 | 9.66 µM (inactive) | CCOc1cc(CNC2CCCCC2)cc(Cl)c1OCc1ccc(F)cc1
20 | 10.3 µM (inactive) | CCOc1cc(CNC2CCCC2)ccc1OCc1ccc(F)cc1
21 | 7.17 µM (inactive) | CCOc1cc(CNC2CCCC2)cc(Cl)c1OCc1cccc(F)c1
22 | 1.04 µM | CCOc1cc(CNC2CCCC2)cc(Cl)c1OCc1ccc(F)cc1
23 | 8.68 µM (inactive) | CCOc1cc(CNC2CCC2)cc(Cl)c1OCc1ccc(F)cc1
24 | 1.1 µM | Clc1ccc(-c2csc(-c3ccncc3)n2)cc1
25 | 6.09 µM (inactive) | Fc1ccc(-c2csc(-c3cccnc3)n2)cc1
26 | > 64 µM (inactive) | CCOc1cc(CNC2CCCC2)cc(Cl)c1OCc1ccc(OC)cc1
27 | 18 µM (inactive) | COc1ccc(-c2csc(-c3ccncc3)n2)cc1
28 | 30 µM (inactive) | Cc1ccc(-c2csc(-c3cccnc3)n2)cc1
